Measured values reported in the supplement of paper PMC10307832.

Experiments:
Test in all cases: relative viability (nuclei count vs DMSO), 5 days (fraction); higher = more cells survive
RU-SKI 43 = compound: CC[C@@H](C)CNCC(=O)N1CCC2=C([C@@H]1COC3=CC=CC(=C3)C)C=CS2 [RU-SKI 43]
Method in brief: (§1)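 Vehicle-anchored 1536-well plates of lung cancer cell lines, held overnight at 37 °C, were pinned with five library-drug doses (not always all listed) spaced by √10. No medium change followed over the next 5 days, after which the cells were fixed, permeabilised and Hoechst-stained together and imaged at 4×. Nuclei were counted with MetaXpress, and viability is treated-well nuclei over vehicle-well nuclei, taken as a median across plates. Plates passed with control CV below 25% and at least one doubling.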

Irinotecan = compound: CCc1c2c(nc3ccc(OC(=O)N4CCC(N5CCCCC5)CC4)cc13)-c1cc3c(c(=O)n1C2)COC(=O)[C@]3(O)CC [Irinotecan]
Method in brief: as §1

MK-8033 = compound: Cn1cc(-c2cnc3ccc4ccc(CS(=O)(=O)NCc5ccccn5)cc4c(=O)c3c2)cn1 [MK-8033]
Method in brief: as §1

RU-SKI 43 + Foretinib = compound: CC[C@@H](C)CNCC(=O)N1CCC2=C([C@@H]1COC3=CC=CC(=C3)C)C=CS2 [RU-SKI 43] + COc1cc2c(Oc3ccc(NC(=O)C4(C(=O)Nc5ccc(F)cc5)CC4)cc3F)ccnc2cc1OCCCN1CCOCC1 [Foretinib] (partner 0.25 µM)
Method in brief: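 Five library-drug doses in √10 steps were combined with a fixed anchor-drug dose, or a single drug was given alone, by pin tool to lung cancer cell lines in 1536-well plates the day after seeding. Nuclei were stained and counted after 5 days. Relative viability is the nuclei count in treated wells over that in vehicle wells, taken as the median of duplicate plates.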

Row | Cell Line | relative viability (RU-SKI 43; 0.1 µM) | relative viability (RU-SKI 43; 0.3162 µM) | relative viability (RU-SKI 43; 1 µM) | relative viability (RU-SKI 43; 3.162 µM) | relative viability (RU-SKI 43; 10 µM) | relative viability (Irinotecan; 0.6325 µM) | relative viability (Irinotecan; 2 µM) | relative viability (Irinotecan; 6.325 µM) | relative viability (Irinotecan; 20 µM) | relative viability (MK-8033; 0.02 µM) | relative viability (MK-8033; 0.06325 µM) | relative viability (MK-8033; 0.2 µM) | relative viability (MK-8033; 0.6325 µM) | relative viability (MK-8033; 2 µM) | relative viability (RU-SKI 43 + Foretinib; first compound 0.1 µM) | relative viability (RU-SKI 43 + Foretinib; first compound 0.3162 µM) | relative viability (RU-SKI 43 + Foretinib; first compound 1 µM) | relative viability (RU-SKI 43 + Foretinib; first compound 3.162 µM) | relative viability (RU-SKI 43 + Foretinib; first compound 10 µM)
1 | NCI-H1299 | 1.02 | 1.09 | 1.05 | 1.04 | 0.946 | 0.799 | 0.738 | 0.489 | 0.283 | 1.01 | 1.02 | 0.994 | 0.985 | 1 | 1.08 | 1.1 | 1.14 | 1.12 | 1.09
2 | SK-MES-1 | 1.05 | 1.16 | 1.01 | 1.05 | 0.977 | 0.873 | 0.799 | 0.327 | 0.236 | 0.925 | 0.935 | 0.942 | 0.96 | 0.998 | 1.09 | 1.04 | 0.97 | 1.1 | 0.907
3 | NCI-H2170 | 0.977 | 1.06 | 1.01 | 1.04 | 0.986 | 0.959 | 0.946 | 0.462 | 0.223 | 0.991 | 0.925 | 0.918 | 0.948 | 0.971 | 0.994 | 1.13 | 1.07 | 1.09 | 0.975
4 | NCI-H647 | 1.04 | 0.987 | 1.13 | 1.07 | 0.996 | 0.866 | 0.815 | 0.191 | 0.142 | 0.919 | 0.943 | 0.89 | 0.935 | 0.874 | 1.39 | 1.42 | 1.25 | 1.17 | 1.25
5 | A-427 | 1.09 | 1.02 | 1.12 | 0.94 | 1.03 | – | 0.844 | 0.299 | 0.21 | 1.05 | 0.963 | 0.877 | 1.06 | 0.96 | 1.14 | 1.03 | 1.13 | 1.11 | 0.969
6 | HCC-366 | 1.11 | 1.23 | 1.05 | 1.08 | 0.979 | 0.591 | 0.615 | 0.093 | 0.081 | 1.03 | 1.03 | 0.977 | 1.02 | 1.06 | 0.975 | 1.01 | 0.994 | 1.04 | 0.811
7 | CAL-12T | 1.04 | 1.04 | 1.14 | 0.907 | 1 | 0.81 | 1.04 | 0.485 | 0.293 | 1.01 | 0.936 | 0.962 | 1.07 | 0.951 | 1.05 | 1.31 | 1.09 | 1.18 | 1.06
